Measurements reported in US6573059B1, “Use of the regulatory subunit of the camp dependent protein kinase (PKA) from dictyostelium for camp measurements” (RMF Dictagene S.A., priority 2000, dated 2003).
“And” between values parts separate entries of the source, which are not always exact repeats. Identical values can stand only once. Like-named read-outs stand apart in the source and are kept apart here. Blank lines part the entries; values can stand above or below the molecule they belong to.

How the values were obtained:
[1] = test system: double GFP-R (R subunit with w7 and S65T GFPs flanking cAMP binding site A); conditions: 500 μM cAMP, emission spectrum, excitation 434 nm
Description: The spectral properties of the double GFP-R were determined using a spectrofluorimeter PTI C60 with photomultiplicator. […] The shoulder corresponds to the emission of the w7, whereas the major peak represents S65T emission.
A conformational change could also result simply from the binding of cAMP. The double GFP-R was incubated with increasing concentrations of cAMP.
Emission spectra from 450 to 550 nm were recorded using a fixed excitation at 434 nm with a bandwidth of 8 nm and an integration time between 0.2 and 1 sec (FIG. 6).
In a second experiment, partially purified double GFP-R was incubated in the presence of increasing concentration of cAMP (FIG. 6B).

[2] = molecular target: mammalian enzymes (PKA regulatory subunit); conditions: read-out: KD for cAMP, background section; cited from earlier work
[3] = molecular target: regulatory subunit of the cAMP dependent protein kinase (PKA) from Dictyostelium (Dictyostelium discoideum, UniProt P05987); conditions: read-out: KD for cAMP; Dictyostelium R subunit, background section; cited from earlier work
Sequence of regulatory subunit of the cAMP dependent protein kinase (PKA) from Dictyostelium (P05987 whole entry, the tested form may be a part): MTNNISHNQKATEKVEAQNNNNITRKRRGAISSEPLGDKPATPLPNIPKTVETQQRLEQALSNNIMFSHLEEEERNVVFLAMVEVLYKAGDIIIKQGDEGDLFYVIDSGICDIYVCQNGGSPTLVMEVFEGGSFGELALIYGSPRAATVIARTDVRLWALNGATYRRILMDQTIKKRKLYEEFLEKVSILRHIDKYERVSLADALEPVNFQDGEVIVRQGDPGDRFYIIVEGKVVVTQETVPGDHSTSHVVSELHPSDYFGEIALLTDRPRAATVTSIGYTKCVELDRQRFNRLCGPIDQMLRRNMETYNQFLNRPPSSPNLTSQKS

[4] = molecular target: T1, R26-GFP (truncated R subunit of cAMP dependent protein kinase (PKA), cAMP binding site A, fused to w7 GFP) (Dictyostelium discoideum, UniProt P05987); assay: FRET titration and competition for cyclic nucleotide binding to purified R26-GFP
T1 sequence (P05987 1-170): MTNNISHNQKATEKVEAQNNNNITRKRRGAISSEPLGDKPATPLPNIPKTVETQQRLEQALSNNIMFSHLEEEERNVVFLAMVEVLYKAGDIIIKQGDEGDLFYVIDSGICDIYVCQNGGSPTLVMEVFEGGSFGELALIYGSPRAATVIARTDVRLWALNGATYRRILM
Description: Fluorescently labelled cGMP (8-{{2-{(Fluoresceinylthioureido)amino}ethyl}thio} guanosine-3′, 5′-cyclic, Biolog) was added to purified R26-GFP and fluorescence emission recorded while exciting at 433 nm.
In a further experiment, unlabelled cAMP was added in a 5 fold excess over 8-fluo-cGMP.
The concentration of labelled 8-fluo-cGMP was varied while recording fluorescence changes (FIG. 3, inset).
In order to measure the real KD for cAMP, a competition experiment was performed by varying stepwise 8-fluo-cGMP concentration For each 8-fluo-cGMP concentration, increasing concentrations of unlabelled cAMP was added, allowing to calculate the apparent KD for cAMP in each Case (FIG. 4).
For FRET measurements, R-26-GFP was diluted to about 0.1 μM. Excitation was performed at 433 nm, while emission was recorded over a range from 450 to 550 nm in a PTI C60 spectrofluorimeter (Photon Technology International).
Different concentrations of 8-Fluo-cGMP (8-{{2-{(Fluoresecinylthioureido)amino}ethyl}thio} guanosine 3′, 5′-cyclic monophosphate, Biolog) were added as indicated (5 fold excess in FIG. 2, open squares) and emission spectra were recorded again. […] In competition experiments, unlabelled cAMP was added at the indicated concentrations (FIG. 3, 100 μM).

amplitude change compared to double GFP/R alone [1]: about 10%
Kd ([4]; true KD for cAMP, competition of unlabelled cAMP with 8-fluo-cGMP, apparent KDs extrapolated to 0): 20 nM and ~20 nM
Compound: Nc1ncnc2c1ncn2[C@@H]1O[C@@H]2COP(=O)(O)O[C@H]2[C@H]1O [cAMP]
Kd [2]: 10 to 30 nM
Kd [3]: ~20 nM

Compound: Nc1nc2c(nc(SCCNC(=S)Nc3ccc4c(c3)C(=O)OC43c4ccc(O)cc4Oc4cc(O)ccc43)n2[C@@H]2O[C@@H]3COP(=O)(O)O[C@H]3[C@H]2O)c(=O)[nH]1 [8-fluo-cGMP, 8-{{2-{(Fluoresecinylthioureido)amino}ethyl}thio} guanosine 3′, 5′-cyclic monophosphate]
Kd [4]: ~80 nM

Compound: Nc1ncnc2c1nc(SCCNC(=S)Nc1ccc3c(c1)C(=O)OC31c3ccc(O)cc3Oc3cc(O)ccc31)n2[C@@H]1O[C@@H]2COP(=O)(O)O[C@H]2[C@H]1O [8-fluo-cAMP, 8-{{2-{(Fluoresceinylthioureido)amino}ethyl}thio}adenosine-3′,5′-cyclic monophosphate]
Kd [4]: ~4.5 nM

Kd ([4]; reverse competition experiment, read-out: KD for cGMP): ~1850 nM
Compound: Nc1nc2c(ncn2[C@@H]2O[C@@H]3COP(=O)(O)O[C@H]3[C@H]2O)c(=O)[nH]1 [cGMP]
